Assay results as given in publication doi:10.1101/2025.11.06.686927v1 (biorxiv, 2025).

Key:
[1] = in vitro; design: species or system HCT116, SH-SY5Y, U2OS; settings: human, rpe-1 cells
[2] = target: CDK2/cyclin A (Homo sapiens, UniProt P24941); test: biochemical; settings: read-out: % of control remaining
[3] = target: T1, CDK8-cyclin C (HsCDK8/Cyclin C) (Homo sapiens, UniProt P49336); test: biochemical; settings: read-out: % of control remaining
[4] = target: T2, DYRK1A (RnDYRK1A-kd) (Rattus norvegicus, UniProt Q63470); test: biochemical; settings: read-out: % of control remaining
[5] = target: T3, HASPIN (Homo sapiens, UniProt Q8TF76); test: biochemical; settings: read-out: % of control remaining
T3 sequence (Q8TF76 1-798): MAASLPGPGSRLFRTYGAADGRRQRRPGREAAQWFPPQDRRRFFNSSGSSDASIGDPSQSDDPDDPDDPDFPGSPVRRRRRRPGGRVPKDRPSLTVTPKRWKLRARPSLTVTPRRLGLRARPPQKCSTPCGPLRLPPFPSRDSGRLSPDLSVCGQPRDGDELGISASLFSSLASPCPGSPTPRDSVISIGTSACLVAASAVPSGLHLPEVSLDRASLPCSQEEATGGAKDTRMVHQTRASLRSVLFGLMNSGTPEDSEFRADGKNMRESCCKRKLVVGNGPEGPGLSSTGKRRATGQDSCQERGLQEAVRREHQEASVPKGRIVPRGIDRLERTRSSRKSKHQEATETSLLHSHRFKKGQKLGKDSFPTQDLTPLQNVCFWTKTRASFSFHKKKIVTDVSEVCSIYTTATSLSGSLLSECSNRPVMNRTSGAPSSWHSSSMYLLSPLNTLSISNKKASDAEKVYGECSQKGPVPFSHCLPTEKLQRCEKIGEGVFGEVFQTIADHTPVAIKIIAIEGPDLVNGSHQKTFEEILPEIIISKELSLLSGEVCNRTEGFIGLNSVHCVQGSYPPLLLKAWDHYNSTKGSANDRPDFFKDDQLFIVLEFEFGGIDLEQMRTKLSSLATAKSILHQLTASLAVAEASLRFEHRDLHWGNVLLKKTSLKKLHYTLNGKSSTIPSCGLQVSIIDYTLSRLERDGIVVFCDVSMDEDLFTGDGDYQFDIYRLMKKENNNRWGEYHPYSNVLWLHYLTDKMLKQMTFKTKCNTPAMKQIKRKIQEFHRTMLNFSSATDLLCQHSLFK

[6] = target: T1, CDK8-cyclin C (HsCDK8/Cyclin C); test: radiometric […]-ATP kinase assay, RBER-IRStide substrate; type: biochemical
[7] = target: PIM1 (Homo sapiens, UniProt P11309); test: biochemical; settings: read-out: % of control remaining
[8] = test system: U2OS; test: cells; design: species or system RPE-1, HCT116, SH-SY5Y; settings: Homo sapiens, 48 h, read-out: U2OS EC50
[9] = test system: SH-SY5Y; test: cells; design: species or system RPE-1, HCT116, U2OS; settings: Homo sapiens, 48 h, read-out: SHSY-5Y EC50
[10] = test system: HCT116; test: cells; design: species or system RPE-1, SH-SY5Y, U2OS; settings: Homo sapiens, HCT-116, 48 h, read-out: HCT116 EC50
[11] = target: T4, CLK1 (MmCLK1) (Mus musculus, UniProt P22518); test: biochemical; settings: read-out: % of control remaining
[12] = target: CDK5/P25 (Homo sapiens, UniProt Q00535); test: biochemical; settings: read-out: % of control remaining
[13] = target: T4, CLK1 (MmCLK1); test: radiometric […]-ATP kinase assay, peptide GRSRSRSRSRSR; type: biochemical; settings: read-out: % residual activity at 10 μM
[14] = target: T2, DYRK1A (RnDYRK1A-kd); test: radiometric […]-ATP kinase assay, peptide KKISGRLSPIMTEQ; type: biochemical; settings: read-out: % residual activity at 10 μM

PIM1, sequence (P11309 whole entry): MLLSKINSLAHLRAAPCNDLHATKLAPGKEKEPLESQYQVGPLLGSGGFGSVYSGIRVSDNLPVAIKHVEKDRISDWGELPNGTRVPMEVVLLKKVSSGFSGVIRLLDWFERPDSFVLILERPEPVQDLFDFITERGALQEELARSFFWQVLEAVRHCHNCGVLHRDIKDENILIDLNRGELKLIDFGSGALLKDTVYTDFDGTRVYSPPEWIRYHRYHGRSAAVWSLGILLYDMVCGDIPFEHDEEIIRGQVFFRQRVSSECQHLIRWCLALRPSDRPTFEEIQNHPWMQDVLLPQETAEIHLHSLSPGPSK
CDK5/P25, sequence (Q00535 whole entry): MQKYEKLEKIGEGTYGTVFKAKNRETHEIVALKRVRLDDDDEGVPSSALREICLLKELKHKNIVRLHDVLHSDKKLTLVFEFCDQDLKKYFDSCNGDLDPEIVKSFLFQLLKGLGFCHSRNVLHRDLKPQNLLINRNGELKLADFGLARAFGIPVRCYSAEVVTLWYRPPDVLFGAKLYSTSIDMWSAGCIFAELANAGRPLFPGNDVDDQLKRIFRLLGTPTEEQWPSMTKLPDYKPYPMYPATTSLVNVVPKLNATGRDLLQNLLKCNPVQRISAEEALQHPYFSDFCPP
CDK5/P25, sequence (Q15078 whole entry partner): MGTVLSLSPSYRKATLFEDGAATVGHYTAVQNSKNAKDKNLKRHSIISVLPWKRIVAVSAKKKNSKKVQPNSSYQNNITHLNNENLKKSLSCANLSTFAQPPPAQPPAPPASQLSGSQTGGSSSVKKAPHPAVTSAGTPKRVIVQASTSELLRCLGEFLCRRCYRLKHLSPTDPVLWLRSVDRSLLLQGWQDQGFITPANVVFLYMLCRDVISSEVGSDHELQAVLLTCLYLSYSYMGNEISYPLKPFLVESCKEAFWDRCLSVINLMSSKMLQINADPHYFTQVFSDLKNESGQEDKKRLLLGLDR
T4 sequence (P22518 whole entry): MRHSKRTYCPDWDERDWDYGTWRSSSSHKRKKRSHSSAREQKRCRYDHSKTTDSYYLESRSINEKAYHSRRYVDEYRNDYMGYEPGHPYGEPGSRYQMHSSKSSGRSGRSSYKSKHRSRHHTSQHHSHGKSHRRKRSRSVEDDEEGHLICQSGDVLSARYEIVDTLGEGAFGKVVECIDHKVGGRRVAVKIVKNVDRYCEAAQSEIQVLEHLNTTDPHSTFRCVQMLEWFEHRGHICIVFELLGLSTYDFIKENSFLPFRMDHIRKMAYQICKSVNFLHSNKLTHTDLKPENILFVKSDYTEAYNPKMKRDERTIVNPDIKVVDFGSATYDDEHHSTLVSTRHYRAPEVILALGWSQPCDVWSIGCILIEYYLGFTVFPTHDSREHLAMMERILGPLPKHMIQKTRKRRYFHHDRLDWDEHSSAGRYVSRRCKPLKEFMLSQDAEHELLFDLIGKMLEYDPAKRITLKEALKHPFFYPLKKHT
T1 sequence (P49336 whole entry): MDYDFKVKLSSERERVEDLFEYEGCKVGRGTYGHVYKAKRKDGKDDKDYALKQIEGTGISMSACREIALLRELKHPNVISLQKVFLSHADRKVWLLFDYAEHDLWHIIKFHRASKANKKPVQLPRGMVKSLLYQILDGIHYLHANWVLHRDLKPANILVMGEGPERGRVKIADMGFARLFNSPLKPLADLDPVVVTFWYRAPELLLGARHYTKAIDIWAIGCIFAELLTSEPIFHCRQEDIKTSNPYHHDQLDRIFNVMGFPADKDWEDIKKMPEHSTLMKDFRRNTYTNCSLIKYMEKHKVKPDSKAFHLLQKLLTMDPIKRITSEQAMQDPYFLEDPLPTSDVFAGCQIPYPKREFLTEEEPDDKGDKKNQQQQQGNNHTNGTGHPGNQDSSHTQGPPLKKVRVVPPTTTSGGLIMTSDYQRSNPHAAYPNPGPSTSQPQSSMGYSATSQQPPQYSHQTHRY
T1 sequence (P24863 whole entry partner): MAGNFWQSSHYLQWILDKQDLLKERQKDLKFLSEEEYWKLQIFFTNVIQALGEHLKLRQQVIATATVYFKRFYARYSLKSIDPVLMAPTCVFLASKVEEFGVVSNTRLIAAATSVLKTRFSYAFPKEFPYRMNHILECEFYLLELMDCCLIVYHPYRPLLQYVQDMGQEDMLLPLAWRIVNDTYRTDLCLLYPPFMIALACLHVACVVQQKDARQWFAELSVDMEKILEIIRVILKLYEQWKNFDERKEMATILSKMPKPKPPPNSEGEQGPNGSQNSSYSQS

SMILES | CC50 at 48 h [1] | remaining activity at 10 µM [2] | remaining activity at 10 µM [3] | remaining activity at 10 µM [4] | remaining activity at 10 µM [5] | IC50 [6] | remaining activity at 10 µM [7] | EC50 [8] | EC50 [9] | EC50 [10] | remaining activity at 10 µM [11] | remaining activity at 10 µM [12] | remaining activity at 10 µM [13] | remaining activity at 10 µM [14]
O=C(CSc1ccc(-c2cccnc2)nn1)Nc1cccc(C(F)(F)F)c1 [compound 9, #9] | > 50 µM | 78% | 10% | 80% | 94% | 0.04 µM | 71% | > 50 µM | > 50 µM | > 50 µM | 111% | 107% | – | –
N#Cc1ccc2ncnc(NCCc3ccccc3)c2c1 [Senexin A] | 41 µM | 62% | 15% | – | – | 0.03 µM | 78% | 48 µM | > 50 µM | > 50 µM | – | 57% | 34% | -7%
O=C(Nc1ccc2oc(-c3cccnc3)nc2c1)c1ncoc1-c1ccccc1Cl [compound 76, #76] | > 50 µM | 73% | 11% | 80% | 116% | 0.1 µM | 109% | > 50 µM | > 50 µM | > 50 µM | – | 89% | 37% | –
O=C(Nc1ccc(Cc2ccncc2)cc1)Nc1cccc2ccccc12 [compound 22, #22] | 10 µM | 76% | 10% | 83% | 96% | 0.16 µM | 85% | 14 µM | 41 µM | 29 µM | 151% | 115% | – | –
Cc1cccc(OCC(=O)Nc2ccc3oc(-c4cccnc4)nc3c2)c1C [compound 45, #45] | 43 µM | 82% | 6% | 73% | 144% | 0.03 µM | 127% | 9 µM | 8 µM | 19 µM | 143% | 115% | – | –
O=C(NC[C@@H]1Cc2cc(-c3cncnc3)ccc2O1)c1scc2c1CCCC2 [compound 47, #47] | > 50 µM | 81% | 5% | 75% | 118% | 0.2 µM | 89% | > 50 µM | > 50 µM | > 50 µM | 109% | 107% | – | –
O=C(NC[C@H]1CC(=O)N(c2ccc3c(c2)OCO3)C1)Nc1cccc(C(F)(F)F)c1 [compound 75, #75] | > 50 µM | 106% | 8% | 89% | 123% | 0.05 µM | 95% | > 50 µM | > 50 µM | > 50 µM | 99% | 101% | – | –
Cc1ccc(NC(=O)Nc2ccc(Cc3ccncc3)cc2)cc1C [compound 82, #82] | > 50 µM | 120% | 19% | 134% | 111% | 0.005 µM | 89% | 10 µM | 24 µM | 31 µM | 81% | 109% | – | –
